Here are results for 3 compounds from patent US5622951A, “Piperazine derivatives as 5-HT antagonists” (John Wyeth & Brother Ltd., priority 1993, dated 1997).

The structures appear in SMILES notation. pIC50: −log10 of the molar value.

What is called pIC50 is −log10 of the IC50, conventionally taken in molar units. Low readings indicate a high IC50, high ones a low IC50.

In assay [1] the target is T1, 5-HT1A receptor (Cavia porcellus, UniProt A0A286Y074).
T1 construct: in the guinea-pig ileum in vitro; from tissue; host or cells: guinea-pig ileum, isolated
T1 sequence (A0A286Y074 1-421): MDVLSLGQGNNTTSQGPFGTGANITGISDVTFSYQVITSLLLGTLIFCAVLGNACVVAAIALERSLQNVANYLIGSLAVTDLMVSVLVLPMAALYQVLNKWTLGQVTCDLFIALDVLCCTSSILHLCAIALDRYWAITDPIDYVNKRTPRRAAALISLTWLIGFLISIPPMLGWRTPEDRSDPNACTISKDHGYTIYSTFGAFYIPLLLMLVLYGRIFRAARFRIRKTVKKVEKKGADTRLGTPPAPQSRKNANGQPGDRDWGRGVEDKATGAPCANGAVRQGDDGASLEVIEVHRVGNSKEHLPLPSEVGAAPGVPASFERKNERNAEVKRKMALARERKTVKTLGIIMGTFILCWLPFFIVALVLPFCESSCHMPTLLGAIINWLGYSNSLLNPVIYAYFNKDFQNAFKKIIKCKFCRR
The assay can be described thus: 5-HT1A receptor antagonism: antagonism of 5-carboxamidotryptamine in the guinea-pig ileum in vitro (Fozard et al). The conditions noted are these: read-out: pA2, 5-HT1A receptor antagonism (converted). The protocol:
The compounds are tested for 5-HT1A receptor antagonism activity in a test involving the antagonism of 5-carboxamidotryptamine in the guinea-pig ileum in vitro (based upon the procedure of Fozard et at, Br J Pharmac, 1985, 86, 601P).

Assay [2] addresses T2, 5-HT1A receptor (Rattus norvegicus, UniProt P19327).
T2 construct: rat hippocampal membrane homogenate; from tissue; host or cells: rat hippocampus, membrane homogenate
T2 sequence (P19327 1-422): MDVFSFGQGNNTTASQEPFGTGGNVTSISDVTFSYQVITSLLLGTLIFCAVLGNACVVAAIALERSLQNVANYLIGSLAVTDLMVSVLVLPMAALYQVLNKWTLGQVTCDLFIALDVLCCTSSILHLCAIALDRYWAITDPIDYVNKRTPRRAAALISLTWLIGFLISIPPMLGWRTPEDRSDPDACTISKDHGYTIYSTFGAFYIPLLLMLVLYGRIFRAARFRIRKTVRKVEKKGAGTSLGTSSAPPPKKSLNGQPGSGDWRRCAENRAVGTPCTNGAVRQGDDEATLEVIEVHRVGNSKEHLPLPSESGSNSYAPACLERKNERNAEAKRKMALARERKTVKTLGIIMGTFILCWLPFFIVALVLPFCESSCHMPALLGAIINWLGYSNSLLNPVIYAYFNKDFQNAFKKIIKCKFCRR
The assay can be described thus: 5-HT1A receptor binding in rat hippocampal membrane homogenate (Alexander and Wood). How it is done:
The compounds of the invention were tested for 5-HT1A receptor binding activity in rat hippocampal membrane homogenate by the method of B S Alexander and M D Wood, J Pharm Pharmacol, 1988, 40, 888-891.

For the compound `COc1ccccc1N1CCN([C@H]2CC[C@H](c3ccccc3)CC2)CC1` [Example 1 (trans), trans-1-(2-methoxyphenyl)-4-(1-phenylcyclohex-4-yl)piperazine], the Kb on 5-HT1A receptor [1] was 0.794 nM. Also, on 5-HT1A receptor [2], the negative logarithm of the IC50 (pIC50) is 9.22. Take `COc1ccccc1N1CCN(C2CC=C(c3ncc(C)cc3C)CC2)CC1` (stereo not shown) [Example 19, 1-(2-Methoxyphenyl)-4-[1-(3,5-dimethylpyridin-2-yl)-cyclohex-1-en-4-yl]piperazine]: the negative logarithm of the IC50 (pIC50) at 5-HT1A receptor [2] is 8.74. Same read-out and setting: the result for `COc1ccccc1N1CCN([C@H]2CC[C@H](c3ncc(C)cc3C)CC2)CC1` [Example 20, Trans-1-(2-Methoxyphenyl)-4-[1-(3,5-dimethylpyridin-2-yl)-cyclohex-4-yl]piperazine] reads 8.80.
